Columns and labels:
[1] = system: human skin (leftover from abdominal plastic surgery); test: Wound healing on ex vivo human skin
Procedure: The ability of various molecular weights of hyaluronic acid (HA) are tested to determine their respective properties relative to wound healing and repair.
In this study, human skin (leftover from abdominal plastic surgery) is used. An N=6 skin samples are used for each test condition for statistical comparison. Before treatment with test samples and positive control (Allantoin), a controlled mean wound of about 1 mm length is created on the skin by removing epidermis using a diamond spurr tip. Four microliters of test samples or Allantoin (positive control) are applied on the wound followed by incubation of the tissue for 6 days, and then harvesting of the tissues in order for hematoxylin and eosin staining for morphological analysis. The length of the wounds are measured and values are compared for statistical comparison with untreated Day 6 (self-healing of the skin in absence of any treatment).

[2] = system: darkly pigmented human epidermal melanocyte cell model; test: Melanin synthesis in melanocytes (NaOH solubilized melanin, 490 nm), Table 2; assay type: cell-based; settings: for Change from untreated (reduction in melanin synthesis) / Melanin Synthesis: after 5 day of treatment; for Melanin Synthesis: relative to untreated (100%); for inhibits melanin synthesis: 5 day
Procedure: (§1) In order to evaluate the melanin synthesis inhibition activity of hexylresorcinol, licorice extract and the combination thereof at certain concentrations, In vitro studies are conducted on darkly pigmented human epidermal melanocyte cell model. Darkly pigmented melanocytes cells are placed on 24-well plates. As a positive control, 0.00025% hydroquinone is used. Hexylresorcinol, licorice extract, and hydroquinone solutions are prepared as follows. […] For combination treatment, 2× solutions of hexylresorcinol and licorice extract are mixed. For single treatment, 2× solutions are mixed with the equal volume of media. Test samples are listed in Table 1. • 0.5 ml of each test sample is directly applied to the 24-well plates in triplicates. After 5 day of treatment, melanocyte viability and melanin synthesis are measured. Melanin synthesis is quantified as follows. Cells are first rinsed with PBS to remove any residual solution and 200 μl NaOH is added to each cell. The plates are shaken for 4 hours to solubilize melanin produced by melanocytes. Solubilized melanin is measured by a spectrometer at 490 nm.

melanocytes = test: Melanin synthesis inhibition, separate assay, Table 2a; assay type: cell-based, human; settings: sample concentrations per Table 2b
Procedure: In a separate assay melanin synthesis is quantified as follows. Cells are first rinsed with PBS to remove any residual solution and 200 μl NaOH is added to each cell. The plates are shaken for 4 hours to solubilize melanin produced by melanocytes. Solubilized melanin is measured by a spectrometer at 490 nm.

[3] = system: darkly pigmented human epidermal melanocyte cell model; test: Melanocyte viability, Alamar Blue; assay type: cell-based; settings: melanocytes, after 5 day of treatment, relative to untreated (100%)
Procedure: as §1, with “Melanocyte viability” for “Melanin synthesis”, “using Alamar Blue solution, which is a nontoxic dye commonly used” for “as follows. Cells are first rinsed with PBS”, “assess cell viability.” for “remove any residual solution and 200 μl NaOH is added to each cell. The plates are shaken for 4 hours to solubilize melanin produced by melanocytes. Solubilized melanin is measured by a spectrometer at 490 nm.”

MelanoDerm tissues = test: Melanin synthesis inhibition in MelanoDerm tissues, separate assay, Table 3a; assay type: cell-based
Procedure: In a separate assay, further comparisons are made to 2% kojic acid solution, which is the industry standard for in vitro tissue testing, and market-based product that is hydroquinone free (“MB HQ Free”) but contains kojic acid and other skin brightening ingredients. In total, 31 prototypes are prepared, and 26 of those are assessed in MelanoDerm™ tissues, as described above.

SMILES | Change from untreated (reduction in melanin synthesis) [2] [%] | Melanin Synthesis [2] | Melanin Synthesis Inhibition (% inhibition vs. untreated) (melanocytes) [%] | Viability [3] | other results
NC(=O)NC1NC(=O)NC1=O (stereo not shown) [Allantoin] | – | – | – | – | Percent (%) Reduction in Wound Width Relative to the Untreated Day 6 ([1]; Day 6): 68%; Mean Wound Width Day 6 ([1]; Day 6 after four microliters applied on wound, N=6, untreated Day 6 874): 280 μm
Oc1ccc(O)cc1 [Control, hydroquinone, reference compound] | 24.3 | 75.7% ± 0.9% | 20.6 | 92% ± 1% | –
CCCCCCc1ccc(O)cc1O [HR1, hexylresorcinol] | 6.9 | 93.1% ± 0.7% | – | 95% ± 3% | –
CCCCCCc1ccc(O)cc1O [HR2, hexylresorcinol] | 2.1 | 97.9% ± 2.1% | – | 105% ± 8% | –
CCCCCCc1ccc(O)cc1O [HR 1, hexylresorcinol] | – | – | 10.4 | – | –
CCCCCCc1ccc(O)cc1O [HR 2, hexylresorcinol] | – | – | 10.2 | – | –
CCCCCCc1ccc(O)cc1O [HR 3, hexylresorcinol] | – | – | 9.3 | – | –
CCCCCCc1ccc(O)cc1O [HR 4, hexylresorcinol] | – | – | 8.8 | – | –
O=c1cc(CO)occ1O [Kojic Acid, kojic acid] | – | – | – | – | Melanin Synthesis Inhibition Relative to Untreated (% inhibition) (MelanoDerm tissues): 73.51%
CCCCCCc1ccc(O)cc1O [hexylresorcinol] | – | – | – | – | inhibits melanin synthesis ([2]; 0.0001% hexylresorcinol): 2.1%; inhibits melanin synthesis ([2]; 0.00025% hexylresorcinol): 6.9%

— patent US12390405B2, “Personal care compositions” (Colgate-Palmolive Company, priority 2021, dated 2025)
